Experiments:
[1] = tested on: nuclear foci in DM1 fibroblasts; assay: nuclear foci assay (in situ hybridisation with Cy3 CAG10 probe, high content imaging); assay type: cell-based; details: for activity in the nuclear foci assay (nuclear foci relative to DMSO treated cells): DM1 fibroblasts, 24 hours, dilution series; for reduction in foci on exposure for different lengths of time: 2 hours to 48 hours
Protocol: Using a previously reported assay the PKIS collection was screened for compounds that reduce nuclear foci and the compounds were then analysed for their known selectivity profiles to identify the common kinase targets (Ketley, A. et al. (2014). Hum Mol Genet, 23: 1551-1562). […] Following treatment, fluorescent in situ hybridisation was performed with a cy3 labelled CAG10 probe, to visualize nuclear foci and cells were analysed on a Molecular Devices plate reader with customised MetaExpress software (Ketley, A. et al. (2014). Hum Mol Genet, 23: 1551-1562). Compounds that reduced nuclear foci in a concentration dependent manner, compared to DMSO treated cells were identified and prioritized for further study.
[…] Plates were analysed on a Molecular Devices Micro High Content Imaging system, with nine fields imaged per well to give approximately 100 cells per well, per compound treatment. The nuclear area was identified by Hoechst stain and the number, size and intensity of foci was determined by scoring adjacent pixels that were 80 grayscales or more above background.

CDK9 = CDK9 (Homo sapiens, UniProt P50750); details: previously reported IC50 values (FIG. 13); cited from earlier work
CDK9, sequence (P50750 whole entry): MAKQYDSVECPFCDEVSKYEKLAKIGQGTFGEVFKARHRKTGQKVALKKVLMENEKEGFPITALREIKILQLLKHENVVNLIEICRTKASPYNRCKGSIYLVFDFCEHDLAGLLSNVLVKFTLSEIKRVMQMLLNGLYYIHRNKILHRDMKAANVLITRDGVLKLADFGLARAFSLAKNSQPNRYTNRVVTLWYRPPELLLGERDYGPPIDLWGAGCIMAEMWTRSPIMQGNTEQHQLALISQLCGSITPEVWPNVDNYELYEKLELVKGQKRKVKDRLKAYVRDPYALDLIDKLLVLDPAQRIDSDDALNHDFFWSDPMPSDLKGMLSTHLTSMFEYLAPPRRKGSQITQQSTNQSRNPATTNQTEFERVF
CDK9, sequence (O60563 whole entry partner): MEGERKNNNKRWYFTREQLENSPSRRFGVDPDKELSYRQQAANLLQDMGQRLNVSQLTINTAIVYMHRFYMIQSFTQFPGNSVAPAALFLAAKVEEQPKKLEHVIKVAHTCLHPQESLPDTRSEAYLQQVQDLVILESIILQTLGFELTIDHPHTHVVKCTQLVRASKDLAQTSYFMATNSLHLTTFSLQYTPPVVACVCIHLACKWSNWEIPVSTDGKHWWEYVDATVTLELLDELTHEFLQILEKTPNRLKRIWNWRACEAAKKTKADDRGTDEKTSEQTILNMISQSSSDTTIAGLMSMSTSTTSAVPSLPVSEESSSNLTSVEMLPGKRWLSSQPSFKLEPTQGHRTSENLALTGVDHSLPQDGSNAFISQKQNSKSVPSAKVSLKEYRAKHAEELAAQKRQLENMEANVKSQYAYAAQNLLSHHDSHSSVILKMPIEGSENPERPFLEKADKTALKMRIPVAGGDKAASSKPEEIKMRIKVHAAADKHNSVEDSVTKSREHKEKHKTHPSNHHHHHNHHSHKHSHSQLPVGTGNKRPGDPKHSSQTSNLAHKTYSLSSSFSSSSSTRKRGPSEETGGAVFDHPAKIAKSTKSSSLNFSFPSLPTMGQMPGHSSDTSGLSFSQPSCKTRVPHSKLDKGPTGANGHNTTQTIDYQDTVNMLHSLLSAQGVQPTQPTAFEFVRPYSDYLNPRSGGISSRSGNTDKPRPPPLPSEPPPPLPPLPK

CDK12 = target: T1, CDK12 (Homo sapiens, UniProt Q9NYV4); assay: chemoproteomics dose-response competition binding with SNS-032 affinity matrix; details: K562 or A204 cell extract, SNS-032 beads
T1 construct: endogenous in cells; host or cells: K562 or A204 cell extract
T1 sequence (Q9NYV4 whole entry): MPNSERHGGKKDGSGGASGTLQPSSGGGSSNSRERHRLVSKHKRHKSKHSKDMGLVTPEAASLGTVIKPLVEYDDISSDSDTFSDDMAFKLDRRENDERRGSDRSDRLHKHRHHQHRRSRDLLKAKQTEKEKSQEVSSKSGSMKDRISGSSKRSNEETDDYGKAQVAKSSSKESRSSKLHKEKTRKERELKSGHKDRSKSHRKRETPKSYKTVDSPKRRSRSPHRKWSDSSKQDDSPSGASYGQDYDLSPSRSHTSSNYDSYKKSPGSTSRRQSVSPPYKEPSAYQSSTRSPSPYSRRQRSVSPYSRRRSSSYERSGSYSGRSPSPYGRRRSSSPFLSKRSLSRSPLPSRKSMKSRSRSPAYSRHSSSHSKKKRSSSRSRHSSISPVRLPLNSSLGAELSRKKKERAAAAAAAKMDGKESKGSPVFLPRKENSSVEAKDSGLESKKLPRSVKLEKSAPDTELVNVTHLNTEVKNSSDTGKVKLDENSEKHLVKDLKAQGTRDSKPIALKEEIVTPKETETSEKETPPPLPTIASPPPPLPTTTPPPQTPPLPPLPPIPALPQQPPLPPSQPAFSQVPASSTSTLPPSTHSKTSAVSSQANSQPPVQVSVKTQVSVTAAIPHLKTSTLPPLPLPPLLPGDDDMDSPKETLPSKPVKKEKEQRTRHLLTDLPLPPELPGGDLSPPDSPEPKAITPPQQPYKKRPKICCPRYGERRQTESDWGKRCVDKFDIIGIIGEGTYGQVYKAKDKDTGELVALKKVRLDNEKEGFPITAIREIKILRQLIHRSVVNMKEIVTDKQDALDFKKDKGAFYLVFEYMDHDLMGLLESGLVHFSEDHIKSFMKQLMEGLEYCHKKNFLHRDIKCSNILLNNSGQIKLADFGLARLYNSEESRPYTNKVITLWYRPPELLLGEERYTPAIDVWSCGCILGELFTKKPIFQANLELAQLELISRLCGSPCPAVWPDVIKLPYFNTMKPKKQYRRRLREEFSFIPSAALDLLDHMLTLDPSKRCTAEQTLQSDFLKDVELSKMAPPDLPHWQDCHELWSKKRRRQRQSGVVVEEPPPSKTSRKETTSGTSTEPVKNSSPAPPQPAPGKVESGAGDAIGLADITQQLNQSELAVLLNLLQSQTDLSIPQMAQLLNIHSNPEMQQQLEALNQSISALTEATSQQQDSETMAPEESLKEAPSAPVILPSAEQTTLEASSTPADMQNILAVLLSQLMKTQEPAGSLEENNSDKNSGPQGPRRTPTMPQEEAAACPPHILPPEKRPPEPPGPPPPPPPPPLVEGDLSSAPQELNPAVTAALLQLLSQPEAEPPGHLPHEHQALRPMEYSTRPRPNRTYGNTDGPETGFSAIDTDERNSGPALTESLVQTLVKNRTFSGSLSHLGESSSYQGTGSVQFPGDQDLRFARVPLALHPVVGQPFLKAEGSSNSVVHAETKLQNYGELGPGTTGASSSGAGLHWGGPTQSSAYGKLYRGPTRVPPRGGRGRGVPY
T1 sequence (O75909 whole entry partner): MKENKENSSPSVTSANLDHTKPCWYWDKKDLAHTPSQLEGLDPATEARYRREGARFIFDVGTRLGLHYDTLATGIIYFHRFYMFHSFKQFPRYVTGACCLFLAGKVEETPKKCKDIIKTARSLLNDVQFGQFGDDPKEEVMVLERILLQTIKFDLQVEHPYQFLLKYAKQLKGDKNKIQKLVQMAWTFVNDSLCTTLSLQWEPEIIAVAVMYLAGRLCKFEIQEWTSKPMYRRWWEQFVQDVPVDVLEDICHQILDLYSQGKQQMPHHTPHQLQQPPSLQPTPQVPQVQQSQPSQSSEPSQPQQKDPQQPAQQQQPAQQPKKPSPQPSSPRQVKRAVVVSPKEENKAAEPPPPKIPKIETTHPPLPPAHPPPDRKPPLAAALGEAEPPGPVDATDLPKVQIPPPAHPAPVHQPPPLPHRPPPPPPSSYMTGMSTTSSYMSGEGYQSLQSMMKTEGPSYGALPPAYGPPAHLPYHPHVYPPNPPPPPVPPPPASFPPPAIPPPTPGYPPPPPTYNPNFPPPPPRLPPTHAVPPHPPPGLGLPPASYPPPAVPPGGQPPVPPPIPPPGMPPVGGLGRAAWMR
Text: FIG. 4: Chemoproteomics target deconvolution. IC50 values were generated by affinity capturing of kinases from K562 or A204 cell extract using beads derivatized with SNS-032, in the presence of different concentrations of free competing compound or vehicle (DMSO). pIC50 values are plotted against the pIC50 in the foci inhibition assay for each compound. A good correlation of kinase binding affinity with the inhibitory activity on foci is observed for CDKS, CDK7, CDK9, and CDK12. r: Pearson correlation coefficient; p: p-value (calculated probability).
To determine the specific CDKs responsible for the reduction of nuclear foci it was sought to expand the target coverage within the CDK family by the immobilization of two of the active compounds containing a suitable secondary amine; SNS-032 and AT7519 (FIG. 10). […] To confirm that the K562, A204 and DM1 cell lines express the same kinases a whole proteome analysis was conducted. All CDK/PCTK proteins identified by profiling were also identified in the cells used for the phenotypic foci assay as follows: […]
Affinity profiling was performed as described previously (Bantscheff, M. et al. (2007). Nat Biotechnol, 25: 1035-1044 and Bantscheff, M. et al. (2011). Nat Biotechnol, 29: 255-265). […] Proteins were alkylated, separated on 4-12% NuPAGE (Invitrogen), stained with colloidal Coomassie, and quantified by isobaric mass tagging and LC-MS/MS.

[2] = tested on: mutant DMPK transcripts in DM1 fibroblast cells; assay: RT-PCR / BpmI assay for repeat expansion transcripts; assay type: cell-based
Protocol: (A) Ethidium bromide stained gel showing RT-PCR products from nuclear (N) and cytoplasmic (C) RNA fractions following amplification and BpmI digest of a fragment of DMPK. GAPDH is used as a loading control. […] (D) DM1 cells treated with SNS-032 for 2 hours.
Reverse transcription was performed using 1 μg total RNA from compound-treated and untreated cells. […] For Genescan analysis primer N11 was labelled with FAM. Amplification was performed with a Tm of 58° C. The PCR product was subsequently heated to 95° C. for 2 minutes followed by cooling to 4° C. For Bpml restriction digestion analysis of DMPK PCR products, 8 μl of PCR mixture was digested overnight with restriction enzyme Bpml (NEB) in a total reaction volume of 20 μl at 37° C. The final products were analysed by electrophoresis at 90V with 3% agarose gels and the density of bands quantified using ImageJ software or by fragment analysis on an AB1377 sequencer followed by Genescan quantification.

HSALR mice = assay: inhibitor treatment in DM1 mouse model; assay type: in vivo; details: compared to vehicle control animals
Protocol: FIG. 7: Inhibitor treatment in a DM1 mouse model (A) Combined myotonia grade scores in quadriceps, gastrocnemius and paraspinal muscles from HSALR mice following vehicle and dinaciclib compound treatment (n=6 per treatment group) (B) Myotonia grades by muscle type in dinaciclib and vehicle treated HSALR mice.
To establish the in vivo effect of this inhibitor HSA^LR mice were treated by intraperitoneal injection for a 28 day treatment period comprising 12 injections in total.

[3] = DM1 cells, 2 hours treatment, no recovery time

Row | SMILES | activity in the nuclear foci assay (nuclear foci relative to DMSO treated cells) [1] | potency against CDK9 (CDK9) | cells without nuclear foci ([1]; DM1 cells, 2 hours treatment, 48 hours recovery) [%] | cells without nuclear foci ([1]; DM1 cells, 2 hours treatment, 72 hours recovery) [%] | cells with more than 5 foci [1, 3] [%] | cells with no foci [1, 3] [%] | treatment time after which foci reduction was effective ([1]; DM1 fibroblast cells) [h] | reduction in foci on exposure for different lengths of time ([1]; DM1 fibroblast cells) | activity against the CDK family, in particular CDK12 (CDK12) | location of repeat expansion transcripts after treatment (nuclear and cytoplasmic extracts) [2] | decrease in the relative proportion of repeat expansion transcripts compared to wild type transcripts in the nucleus ([2]; 1 μM, 24 hours, Genescan) [%] | centralised nuclei in muscle fibres (laminin stain) (HSALR mice)
1 | O=C(NC1CCNCC1)c1[nH]ncc1NC(=O)c1c(Cl)cccc1Cl [AT-7519] | high activity | highest potency |  |  |  |  |  |  |  |  |  | 
2 | CC(C)(C)c1cnc(CSc2cnc(NC(=O)C3CCNCC3)s2)o1 [SNS-032] | high activity | highest potency | 14 | 36 | 28 | 10 | 2 | significant reduction in foci |  |  |  | 
3 | CCc1cnn2c(NCc3ccc[n+]([O-])c3)cc(N3CCCC[C@H]3CCO)nc12 [dinaciclib] | significantly increased activity |  |  |  |  |  |  | significant reduction in foci | most active inhibitor | still retained within the nuclear fraction | 59 | reduction in centralised nuclei

— US11596631B2, “CDK12 inhibitors and their uses” (The University of Nottingham, priority 2016, dated 2023)
